The results in this text go back to paper PMC12700550, “DLL4^+ neutrophils promote Notch1-mediated endothelial PANoptosis to exacerbate acute lung injury in sepsis” (The Journal of Clinical Investigation, 2025).

“And” between values parts separate entries of the source, which are not always exact repeats. Equal values may be shown once.

Test [1] deals with ZBP1. In words: ZBP1 mRNA in PVECs cocultured with neutrophils, RT-PCR (DAPT, NDI, peptides 1–5). The note with it: for ZBP1 mRNA expression (Figure 4E): 10 μM peptide, relative mRNA, β-actin normalized, individual replicates. The arrangement: key to ZBP1 mRNA expression (Figure 4E): fold change in mRNA vs sham group. It is filed as cell-based, mouse. As for the experimental part:
Immortalized mouse (Mus musculus) lung endothelial cells with polyoma middle T (PVECs) were purchased from Applied Biological Materials Inc. (ABM) and grown in 1:1 PriGrow VI Medium and PriGrow IV Medium (ABM).
Wild-type PVECs (5 × 10^5) were cocultured with sorted DLL4^+ neutrophils (5 × 10^5) or DLL4^– neutrophils (5 × 10^5) and then treated with different dosages of peptides or 10 μM DAPT (Thermo Fisher Scientific), 10 μM NDI (GenScript), or 10 μM NDI scramble (GenScript). Notch1-knockdown PVECs (5 × 10^5) were cocultured with sorted DLL4^+ neutrophils (5 × 10^5). After 16 hours, neutrophils were washed away by PBS, and PVECs were collected for further experiments. Cell viability was evaluated by propidium iodide staining using the FITC Annexin V Apoptosis Detection Kit I (catalog 556547, BD Pharmingen). Cell death was quantified as the percentage of propidium iodide–positive cells by flow cytometry.
mRNA was extracted from lung tissues with TRIzol reagent (Invitrogen, Thermo Fisher Scientific). An equal amount ([…]) of mRNA was reverse-transcribed into cDNA using the reverse transcriptase enzyme (Invitrogen, Thermo Fisher Scientific). qPCR was performed from the diluted cDNA templates with forward and reverse primers (Supplemental Table 4) and SYBR Green PCR Master Mix (Applied Biosystems, Thermo Fisher Scientific) using an Applied Biosystems 7300 real-time PCR machine. Mouse β-actin served as an internal control gene for normalization. Relative expression of mRNA was represented as fold change in comparison with the sham group.

Test [2] deals with T1, rmNotch1 (Mus musculus, UniProt Q01705).
T1 construct: purchased R&D Systems 5267-TK (rmNotch1); 1389-D4-050/CF (rmDLL4)
In words: BIAcore assay (surface plasmon resonance), rmDLL4 to immobilized rmNotch1. The note with it: 1 μg/mL NDI. Type of test: binding, murine. As for the experimental part:
To determine rmDLL4’s direct interaction with rmNotch1, surface plasmon resonance (OpenSPR, Nicoya) was performed. High-sensitivity nitrilotriacetic acid (HS-NTA) sensors were used. Binding reactions were performed in running buffer (PBS, 0.005% P20, pH 7.4). The HS-NTA sensor was first cleaned by injection with 10 mM HCl (150 μL) followed by injection of 150 μL of 350 mM EDTA. […] For the effect of NDI efficacy on rmDLL4 binding to rmNotch1, the same HS-NTA sensor was used. rmDLL4 at all the concentrations used for binding with rmNotch1 was preincubated with 1 μg/mL NDI for 30 minutes at room temperature, and then the complexes were injected to channels 1 and 2. Binding reactions were carried out with the same running buffer at a flow rate of 40 μL/min at 20°C. Channel 1 was used as a control to evaluate nonspecific binding. The real-time interaction data were analyzed by Trace Drawer (Nicoya). The signals from channel 1 were subtracted from channel 2 coated with the ligand for all samples. Data were globally fitted for 1:1 binding (one-to-one model).

For test [3], the system named is C57BL/6 mice, CLP sepsis. Nature of the test: Evans blue dye lung extravasation, CLP mice. The settings on record: 20 h; for Evans blue dye, EBD/dry lung tissue (Figure 6L): 10 mg/kg NDI, EBD 20 mg/kg, individual mice. Type of test: in vivo, mouse. The method, then:
Sepsis was induced in mice by cecal ligation and puncture (CLP) as described previously ([45], [46]). Mice were anesthetized with isoflurane to a surgical plane and placed in a supine position. CLP was performed through a midline laparotomy. The abdomen was shaved and disinfected. Through a 2 cm midline incision, the cecum was exposed and then ligated with a 4-0 silk suture 1 cm proximal from the distal cecal extremity. […] A small amount of cecal content was extruded through both holes, and the ligated cecum was returned to the peritoneal cavity. The wound was closed in layers. […] A small amount of cecal content was extruded. […] Vehicle groups received an equivalent volume of PBS, while treatment groups received NDI 10 mg/kg in […] PBS via retro-orbital injection after CLP. This dose was chosen primarily on the basis of our laboratory’s prior experience, we have consistently used this dose in mouse CLP models with reproducible efficacy and without observable toxicity ([39], [44]). Sham-operated animals underwent a laparotomy without CLP. After closure, the mice received a subcutaneous injection of 0.5 mL of normal saline to overcome surgery-induced dehydration. […] All mice were subcutaneously injected with a single dose of 0.1 mg/kg buprenorphine after CLP. Lung vascular leakage was quantified using the Evans blue dye–labeled (EBD-labeled) albumin extravasation assay ([48]). […] Sigma-Aldrich) via retro-orbital injection. […] The whole lung was dehydrated for 48 hours at 60°C, immersed in formamide (1 mL/g wet weight; Sigma-Aldrich) at 37°C for 48 hours, and centrifuged at 5,000g for 30 minutes. The amount of extracted EBD in the supernatant was quantified by spectrophotometry. The concentration of extravasated EBD-albumin in lung homogenates was expressed as nanograms EBD per milligram of dry lung tissue. Lung water content was calculated as (wet weight – dry weight)/wet weight %.

T1 sequence (Q9JI71 28-525 partner limits assumed): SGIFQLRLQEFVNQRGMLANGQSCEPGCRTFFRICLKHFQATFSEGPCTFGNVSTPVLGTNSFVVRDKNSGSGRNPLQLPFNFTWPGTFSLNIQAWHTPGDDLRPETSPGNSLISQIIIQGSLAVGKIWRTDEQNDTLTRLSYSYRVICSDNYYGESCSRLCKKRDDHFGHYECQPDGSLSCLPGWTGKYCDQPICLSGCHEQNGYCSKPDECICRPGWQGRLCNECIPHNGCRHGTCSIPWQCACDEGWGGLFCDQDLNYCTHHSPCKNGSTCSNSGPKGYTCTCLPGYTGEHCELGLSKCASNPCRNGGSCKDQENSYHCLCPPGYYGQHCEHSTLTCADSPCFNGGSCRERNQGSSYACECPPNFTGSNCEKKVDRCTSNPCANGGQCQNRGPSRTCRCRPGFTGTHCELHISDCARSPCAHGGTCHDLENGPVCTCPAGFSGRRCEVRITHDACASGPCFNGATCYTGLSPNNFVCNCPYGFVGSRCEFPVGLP
T1 sequence (Q01705 with tags, fused parts or gaps limits assumed): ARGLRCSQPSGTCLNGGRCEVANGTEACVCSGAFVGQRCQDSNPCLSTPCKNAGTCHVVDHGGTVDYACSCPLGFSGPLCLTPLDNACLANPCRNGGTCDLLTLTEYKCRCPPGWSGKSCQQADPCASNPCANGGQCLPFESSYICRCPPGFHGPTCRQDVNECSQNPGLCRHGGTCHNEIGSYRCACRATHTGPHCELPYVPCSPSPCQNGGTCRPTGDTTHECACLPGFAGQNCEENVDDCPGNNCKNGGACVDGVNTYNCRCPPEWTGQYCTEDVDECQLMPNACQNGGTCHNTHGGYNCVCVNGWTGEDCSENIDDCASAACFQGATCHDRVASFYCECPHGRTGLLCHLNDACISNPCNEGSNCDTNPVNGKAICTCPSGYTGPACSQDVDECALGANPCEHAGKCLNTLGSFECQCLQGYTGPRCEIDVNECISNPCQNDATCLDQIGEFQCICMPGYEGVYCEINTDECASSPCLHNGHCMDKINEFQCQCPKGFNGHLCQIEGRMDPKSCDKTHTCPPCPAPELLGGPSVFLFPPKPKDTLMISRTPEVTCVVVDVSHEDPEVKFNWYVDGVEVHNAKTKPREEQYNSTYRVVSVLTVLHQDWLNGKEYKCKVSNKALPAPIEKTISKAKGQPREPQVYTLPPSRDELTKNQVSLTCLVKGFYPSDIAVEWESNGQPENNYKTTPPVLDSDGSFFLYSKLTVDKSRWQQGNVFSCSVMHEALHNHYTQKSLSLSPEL

Turning to ECAGSPCHNGGTCEDGI [NDI], the “effect on ZBP1 mRNA” value is on record as “significantly attenuated by NDI treatment” in test [1] (10 μM NDI, DLL4^+ neutrophil coculture) and “significantly reduced ZBP1 expression” in test [1] (PVECs cocultured with DLL4^+ neutrophils, varying concentrations of peptide, 16 h, n=10/group). In addition, the “ZBP1 mRNA expression (Figure 4E)” value in test [1] (DLL4^+ neutrophil coculture, 16 h) was 1.415 and 1.669 and 3.8174 and 1.677 and 1.56 and 2.849 and 9.163 and 6.321 and 1.561 and 1.421 and 1.212 and 1.283 and 1.413 and 1.3501; in test [1] (DLL4^– neutrophil coculture, 16 h), 1.952 and 2.343 and 4.227 and 9.382 and 4.404 and 4.151 and 12.0095 and 11.4783 and 1.027 and 3.606 and 3.156 and 1.889 and 1.85 and 3.13. Besides, the “inhibition of DLL4^+ neutrophil–induced PANoptosis in PVECs, by reduced ZBP1 expression” value in test [1] (among the tested peptides) was “most effectively inhibited”. In addition, in test [1] (dose-response, PVECs cocultured with DLL4^+ neutrophils), the “effective concentration for ZBP1 inhibition” value came out at 10 µM. Besides, the “effect on Notch1-DLL4 interaction” value in test [2] is reported as “significantly disrupted Notch1-DLL4 interaction”. The “effect on Evans blue dye content” value in test [3] (DLL4^+ neutrophil-injected CLP mice, 10 mg/kg) is “significantly attenuated these effects, reducing both lung water content and Evans blue dye content”. Also, the “Evans blue dye, EBD/dry lung tissue (Figure 6L)” value in test [3] (DLL4^+ neutrophils + CLP) is 94.3739 nanograms EBD per milligram of dry lung tissue and 81.6499 nanograms EBD per milligram of dry lung tissue and 102.841 nanograms EBD per milligram of dry lung tissue and 95.8364 nanograms EBD per milligram of dry lung tissue and 67.7799 nanograms EBD per milligram of dry lung tissue and 56.8397 nanograms EBD per milligram of dry lung tissue and 66.2061 nanograms EBD per milligram of dry lung tissue and 49.7845 nanograms EBD per milligram of dry lung tissue and 71.2396 nanograms EBD per milligram of dry lung tissue; in test [3] (DLL4^– neutrophils + CLP), 62.3234 nanograms EBD per milligram of dry lung tissue and 74.8524 nanograms EBD per milligram of dry lung tissue and 79.6398 nanograms EBD per milligram of dry lung tissue and 73.406 nanograms EBD per milligram of dry lung tissue and 63.9328 nanograms EBD per milligram of dry lung tissue and 50.0167 nanograms EBD per milligram of dry lung tissue and 66.1099 nanograms EBD per milligram of dry lung tissue and 61.0318 nanograms EBD per milligram of dry lung tissue and 57.5122 nanograms EBD per milligram of dry lung tissue.
